Results: PubChem BioAssay (NCI)
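All cell lines were grown in 96-well plates and treated with compound for 48 hours. GI50 marks 50% less growth. TGI: concentration producing complete growth inhibition.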

Assays:
Assay in all cases: NCI-60 cell line screen, 48 h
[1] = tested on: U251 CNS
[2] = tested on: 786-0 renal
[3] = tested on: TK-10 renal
[4] = tested on: RXF 393 renal
[5] = tested on: NCI-H460 lung
[6] = tested on: NCI-H23 lung
[7] = tested on: SN12C renal
[8] = tested on: MDA-MB-231 breast
[9] = tested on: NCI-H226 lung
[10] = tested on: MDA-MB-435
[11] = tested on: MCF7 breast
[12] = tested on: LOX IMVI melanoma
[13] = tested on: CCRF-CEM leukemia
[14] = tested on: UO-31 renal
[15] = tested on: EKVX NSCLC
[16] = tested on: RPMI-8226 leukemia
[17] = tested on: SF-295 CNS
[18] = tested on: HOP-92 NSCLC
[19] = tested on: NCI-H522 lung
[20] = tested on: T-47D breast
[21] = tested on: OVCAR-5 ovarian
[22] = tested on: SK-MEL-5 melanoma
[23] = tested on: KM12 colon
[24] = tested on: BT-549 breast
[25] = tested on: HS 578T breast
[26] = tested on: SF-539 CNS
[27] = tested on: A498 renal
[28] = tested on: IGROV1 ovarian
[29] = tested on: SNB-75 CNS
[30] = tested on: SF-268 CNS
[31] = tested on: OVCAR-8 ovarian
[32] = tested on: K-562 leukemia
[33] = tested on: NCI/ADR-RES ovarian
[34] = tested on: COLO 205 colon
[35] = tested on: HCT-116 colon
[36] = tested on: HT29 colon
[37] = tested on: OVCAR-4 ovarian
[38] = tested on: M14 melanoma
[39] = tested on: SK-OV-3 ovarian
[40] = tested on: SNB-19 CNS
[41] = tested on: SK-MEL-2 melanoma
[42] = tested on: SW-620 colon
[43] = tested on: MALME-3M melanoma
[44] = tested on: MOLT-4 leukemia
[45] = tested on: UACC-62 melanoma
[46] = tested on: A549 NSCLC
[47] = tested on: HCT-15 colon
[48] = tested on: CAKI-1 renal
[49] = tested on: HOP-62 NSCLC
[50] = tested on: UACC-257 melanoma
[51] = tested on: DU-145 prostate
[52] = tested on: OVCAR-3 ovarian
[53] = tested on: HCC-2998 colon
[54] = tested on: PC-3 prostate
[55] = tested on: SR leukemia
[56] = tested on: ACHN renal
[57] = tested on: SK-MEL-28 melanoma

## CCOc1cc(C(C)(C)C)ccc1C1=N[C@H](c2ccc(Cl)cc2)[C@H](c2ccc(Cl)cc2)N1C(=O)N1CCN(CC#Cc2cccc3c2CN([C@@H]2CCC(=O)NC2=O)C3=O)CC1
[1]
  GI50: 5.47 µM
  TGI: > 47 µM
[2]
  GI50: 1.32 µM
  TGI: 42.8 µM
[3]
  GI50: 2.41 µM
  TGI: 44 µM
[4]
  GI50: 2.12 µM
  TGI: > 51.6 µM
[5]
  GI50: 2.38 µM
  TGI: 11.7 µM
[6]
  GI50: 8.14 µM
  TGI: > 100 µM
[7]
  GI50: 1.31 µM
  TGI: > 100 µM
[8]
  GI50: 0.0192 µM
  TGI: 0.0797 µM
[9]
  GI50: 0.112 µM
  TGI: 4.33 µM
[10]
  GI50: 2.75 µM
  TGI: > 53.8 µM
[11]
  GI50: 0.0712 µM
  TGI: > 100 µM
[12]
  GI50: 2.05 µM
  TGI: 22.7 µM
[13]
  GI50: 0.023 µM
  TGI: > 100 µM
[14]
  GI50: 0.236 µM
  TGI: 2 µM
[15]
  GI50: 3.98 µM
  TGI: > 100 µM
[16]
  GI50: 2.3 µM
  TGI: > 100 µM
[17]
  GI50: 2.53 µM
  TGI: 19.2 µM
[18]
  GI50: 0.0372 µM
  TGI: 8.51 µM
[19]
  GI50: 6.59 µM
  TGI: > 77.3 µM
[20]
  GI50: 0.0431 µM
  TGI: 12.9 µM
[21]
  GI50: 4.5 µM
  TGI: > 54.3 µM
[22]
  GI50: 0.868 µM
  TGI: 2.2 µM
[23]
  GI50: 2.22 µM
  TGI: > 100 µM
[24]
  GI50: 0.317 µM
  TGI: 19.8 µM
[25]
  GI50: 0.346 µM
  TGI: > 100 µM
[26]
  GI50: 4.49 µM
  TGI: > 100 µM
[27]
  GI50: 0.197 µM
  TGI: 6.62 µM
[28]
  GI50: 0.165 µM
  TGI: > 33.5 µM
[29]
  GI50: 0.1 µM
  TGI: > 43.2 µM
[30]
  GI50: 1.2 µM
  TGI: > 100 µM
[31]
  GI50: 0.157 µM
  TGI: > 31.8 µM
[32]
  GI50: 2.66 µM
  TGI: > 100 µM
[33]
  GI50: 1.79 µM
  TGI: > 100 µM
[34]
  GI50: 0.472 µM
[35]
  GI50: 1.97 µM
  TGI: > 36.3 µM
[36]
  GI50: 2.41 µM
  TGI: > 34.8 µM
[37]
  GI50: 0.101 µM
  TGI: > 100 µM
[38]
  GI50: 1.46 µM
  TGI: > 47.3 µM
[39]
  GI50: 6.95 µM
  TGI: > 88.9 µM
[40]
  GI50: 2.1 µM
  TGI: > 58.8 µM
[41]
  GI50: 2.98 µM
  TGI: 13.6 µM
[42]
  GI50: 0.143 µM
  TGI: > 100 µM
[43]
  GI50: 0.0331 µM
  TGI: 0.778 µM
[44]
  GI50: 0.019 µM
  TGI: > 100 µM
[45]
  GI50: 0.673 µM
  TGI: 14.7 µM
[46]
  GI50: 1.1 µM
  TGI: > 43.1 µM
[47]
  GI50: 0.301 µM
  TGI: > 53.5 µM
[48]
  GI50: 0.215 µM
  TGI: 9.59 µM
[49]
  GI50: 0.115 µM
  TGI: 16.3 µM
[50]
  GI50: 1.85 µM
  TGI: 14.8 µM
[51]
  GI50: 4.87 µM
  TGI: > 100 µM
[52]
  GI50: 2.81 µM
  TGI: 15.9 µM
[53]
  GI50: 0.905 µM
  TGI: > 100 µM
[54]
  GI50: 0.085 µM
  TGI: 18.4 µM
[55]
  GI50: 0.642 µM
  TGI: > 100 µM
[56]
  GI50: 1.24 µM
  TGI: 12.4 µM
[57]
  GI50: 3.29 µM
  TGI: > 100 µM
